# Marks after values point to notes of the source that are not given here.
# Experiments:
# [1] = DTH sensitivity to tuberculin; assay type: in vivo, guinea pigs
# Method: In the second study, affects of L-Glu-L-Trp on DTH sensitivity were investigated in guinea pigs sensitized to tuberculin. L-Glu-L-Trp was administered ip at 10 μg/kg or 1000 μg/kg on the day of an intradermal sensitization with tuberculin antigen.
# [2] = Chronic osteomyelitis; set-up: species or system human; conditions: in vivo
# Method: L-Glu-L-Trp was administered to 176 patients with chronic osteomyelitis of various etiology and bone localizations. The control group consisted of 88 patients receiving conventional treatment. L-Glu-L-Trp was administered im as a single daily dosage of 100 μg, or intranasally at a dose of 1 μg/kg daily, over a period of 10 days.
# [3] = system: peripheral blood leukocytes
# Method: Twenty-eight patients (15) having the same disease profile and under conventional treatment formed a control group.
# The patients presented with the following diagnosed odontogenic infections: 18 with limited purulent infection(s), 7 with focal infection(s), 3 with diffuse infection(s). In addition, 3 patients presented with destructive osteomyelitis and 15 with plegmons mandible.
# All 15 children in the conventional treatment group were evaluated before therapy. Post-treatment measurements were performed with peripheral blood samples that were collected from all the conventional and L-Glu-L-Trp treated children. Fifteen healthy normal children were also evaluated to determine the normal mean values in the respective assays (Normal Healthy Control).
# [4] = system: influenza; assay: Influenza treatments (Protocol E); set-up: species or system human; conditions: in vivo
# Method: One hundred fifty-six patients (156) with influenza were treated with 100 μg L-Glu-L-Trp im or 1 μg/kg intranasally on each of 5-10 consecutive days. A control group constituted with entry of 82 influenza patients who remained untreated.
# [5] = Bone fractures; set-up: species or system human; conditions: in vivo
# Method: L-Glu-L-Trp was applied to 44 patients with bone fractures of various origin. The control group comprised 28 patients. L-Glu-L-Trp was administered intramuscularly or intranasally in a single dose of 100 μg daily for 10 days.
# [6] = Occupational radiation exposure to 100-200 R; set-up: species or system human; conditions: in vivo
# From the text: A total of 263 patients and 18 control patients sustained exposure to 100-200 Roentgens of occupational radiation over a period of several weeks.
# [7] = Acute osteomyelitis / soft tissue inflammation in children (Protocol C); assay type: in vivo, human
# Method: Seventeen hospitalized children (10 boys and 7 girls) were entered into this protocol: 6 with acute inflammatory diseases of soft tissues (abscesses, phlegmons), 4 with odotogenous osteomyelitis of the jaw, and 7 with hematogenous osteomyelitis of the flat and tubular bones. In 11 children, the course of the illness was acute and in 6 it was subacute and chronic.
# L-Glu-L-Trp was administered in combination therapy with conventional antibiotic therapies. Where necessary, surgery was performed to drain infectious foci in the jaw or soft tissues, affected teeth were extracted, and for osteomyelitis a port was drilled for infusion of antibiotics. Physical examination and laboratory testing was conducted before administering L-Glu-L-Trp and 2-3 days after the treatment.
# Laboratory tests were conducted to determine clinical chemistry and protein values prior to and after therapy (i.e., including the concentrations of bilirubin, creatinine, albumin, cholesterol, urea nitrogen, glucose, protein, chloride, potassium, phosphorus, calcium, sodium, alkaline phosphatase, α1-orosomucoid, α2-macroglobulin, prealbumin, ceruloplasmin, and transferrin). While urea nitrogen and cholesterol decreased slightly after therapy, these and all other changes observed after L-Glu-L-Trp treatment were not statistically significant.
# [8] = system: E. coli; assay: Survival after acute peritonitis with LD100 dose of E. coli; assay type: in vivo, mice
# [9] = 10 μg/kg ip on day of tuberculin sensitization
# [10] = 1000 μg/kg ip on day of tuberculin sensitization
# [11] = children, periapical granulomas, L-Glu-L-Trp Combination, After Therapy
# [12] = children, After L-Glu-L-Trp Therapy (2-3 days after treatment)
substance,measurement,setting,value
L-Glu-L-Trp,Mean Skin Test Diameter ± S.D. Day 10,[1]; [9],14.4 ± 1.3 mm
same,Mean Skin Test Diameter ± S.D. Day 20,[1]; [9],15.1 ± 1.4 mm
same,Mean Skin Test Diameter ± S.D. Day 10,[1]; [10],15.2 ± 1.3 mm
same,Mean Skin Test Diameter ± S.D. Day 20,[1]; [10],13.9 ± 1.1 mm
same,DTH response to tuberculin antigen,[1]; day 10 or day 20,statistically significant increase in the DTH response
same,Clinical outcome,[2],pronounced positive effect on clinical course
same,B-Lymphocytes % of Normal Value,[3]; [11],(108%)
same,B-Lymphocytes: No.,[3]; [11],0.67 ± 0.05 10^9/L
same,IgA,[3]; [11],1.09 ± 0.04 g/L
same,IgA % Normal Value,[3]; [11],(104%)
same,IgG,[3]; [11],10.78 ± 0.83 g/L
same,IgG % Normal Value,[3]; [11],(117%)
same,IgM,[3]; [11],0.93 ± 0.07 g/L
same,IgM % Normal Value,[3]; [11],(95%)
same,LMIR Response: % w/PHA,[3]; [11],14.65 ± 3.11 %
same,Leukocytes % Normal Value,[3]; [11],(97%)
same,Leukocytes: No.,[3]; [11],6.60 ± 0.39* 10^9/L
same,Lymphocytes % Normal Value,[3]; [11],(36%)
same,Lymphocytes: No.,[3]; [11],2.37 ± 0.21 10^9/L
same,T-Lymphocytes % of Normal Value,[3]; [11],(98%)
same,T-Lymphocytes: No.,[3]; [11],1.24 ± 0.11* 10^9/L
same,"T-lymphocyte counts, % of normal levels",[3]; following combination therapy,98%
same,Clinical outcome,[4],accelerated alleviation of symptoms associated with influenza infection
same,Clinical outcome,[5],"prevented the development of infectious complications, reduced pain syndrome and treatment duration"
same,Outcome,[6],"restoration of normal, or near normal, peripheral blood immune indices in all patients"
same,B-Lymphocytes: % of PBL,[7]; [12],15.1 ± 3.32 % of PBL
same,B-Lymphocytes: No.,[7]; [12],0.41 ± 0.11 10^9/L
same,C3,[7]; [12],0.72 ± 0.05 g/L
same,IgA,[7]; [12],1.68 ± 0.18 g/L
same,IgG,[7]; [12],14.4 ± 1.31 g/L
same,IgM,[7]; [12],1.64 ± 0.26 g/L
same,LMIR: % Con A,[7]; [12],49.7 ± 13.7 %
same,LMIR: % PHA,[7]; [12],47.7 ± 11.2 %
same,Leukocytes,[7]; [12],7.0 ± 0.4^† 10^9/L
same,Lymphocytes: % of PBL,[7]; [12],43 ± 3.61 % of PBL
same,Lymphocytes: No.,[7]; [12],3.15 ± 0.41 10^9/L
same,Neutrophils,[7]; [12],3.4 ± 0.33 ×10^9/L
same,Neutrophils: % PBL,[7]; [12],50 ± 4.8 % PBL
same,Null-Lymphocytes: % of PBL,[7]; [12],18.7 ± 4.68 % of PBL
same,Null-Lymphocytes: No.,[7]; [12],0.42 ± 0.11^† 10^9/L
same,T-Lymphocytes: % of Lym,[7]; [12],66.2 ± 2.57 % of Lym
same,T-Lymphocytes: No.,[7]; [12],1.7 ± 0.3 10^9/L
same,T-helper (Etr-RFC): % of Lym,[7]; [12],57.3 ± 6.34 % of Lym
same,T-helper (Etr-RFC): No.,[7]; [12],1.4 ± 0.24 10^9/L
same,T-suppressor: % of Lym,[7]; [12],8.8 ± 5.4 % of Lym
same,T-suppressor: No.,[7]; [12],0.3 ± 0.2 10^9/L
same,Wounds cleaned and granulated earlier than usual,[7]; in vivo,2 to 3 days
same,Percentage Survivors,"[8]; 24 hours after injection, Glu-Trp dose 10 μg/kg (alone or + Ampicillin 1 MED)",83.3* %
same,Percentage Survivors,"[8]; 24 hours after injection, Glu-Trp dose 100 μg/kg (alone or + Ampicillin 1 MED)",77.8*† %
same,Percentage Survivors,"[8]; 24 hours after injection, Glu-Trp dose 1000 μg/kg (alone or + Ampicillin 1 MED)",83.3*† %
same,Percentage Survivors,"[8]; 48 hours after injection, Glu-Trp dose 10 μg/kg (alone or + Ampicillin 1 MED)",11.1%
same,Percentage Survivors,"[8]; 48 hours after injection, Glu-Trp dose 100 μg/kg (alone or + Ampicillin 1 MED)",38.9* %
same,Percentage Survivors,"[8]; 48 hours after injection, Glu-Trp dose 1000 μg/kg (alone or + Ampicillin 1 MED)",44.4* %
same,Percentage Survivors,"[8]; 72 hours after injection, Glu-Trp dose 10 μg/kg (alone or + Ampicillin 1 MED)",11.1%
same,Percentage Survivors,"[8]; 72 hours after injection, Glu-Trp dose 100 μg/kg (alone or + Ampicillin 1 MED)",38.9* %
same,Percentage Survivors,"[8]; 72 hours after injection, Glu-Trp dose 1000 μg/kg (alone or + Ampicillin 1 MED)",44.4* %
